In patent US20120329879A1, “BETA-ADRENERGIC RECEPTOR AGONISTS AND USES THEREOF” (THE UNIVERSITY OF TENNESSEE RESEARCH FOUNDATION, priority 2010, published 2012):

How the values were obtained:
[1] = tested on: Human retinal endothelial cells (HREC); test: TNFalpha and cleaved caspase 3 ELISA in retinal endothelial cells cultured in high glucose; format: cell-based
Protocol: (§1) Human retinal endothelial cells (HREC) were purchased from Cell Systems (Kirkland, Wash.) and grown in either basal (5 mM glucose) or growth (25 mM glucose) media. Both media is supplemented with 10% FBS and antibiotics. The day prior to experiments, cells are serum-starved for 18-24 hours. Rat Müller cells (rMC-1) were grown in DMEM medium with 5 mM glucose or 25 mM glucose. Media was supplemented with 10% FBS and antibiotics. Cells were serum starved prior to all experiments for 18-24 hours.
(§2) Human retinal endothelial cells (HREC) and rat Muller cells (rMC-1) in both glucose conditions were treated with Compound 2 at doses of 10 nM, 50 nM, 100 nM, 1 μM, and 10 μM of Compound 2. Cells of each type were grown in medium containing L-glucose to control for changes in osmolarity. 10 μM isoproterenol was also used for each condition as a positive control. Müller cells were treated for 1 hour and 24 hours, while HREC were treated for 30 and 60 minutes.
(§3) Following treatment, cells were collected into lysis buffer containing protease and phosphatase inhibitors. ELISA analyses for TNFalpha, cleaved caspase 3, and PKA were done according to manufacturers instructions. Data is compared against non-treated cells and cells at the various doses. A Kruskal-Wallis test is done, with a Dunn's test for secondary analyses. […] The dose that decreases TNFalpha and caspase 3 levels also increases PKA activity.

Rat Müller cells (rMC-1) = test: TNFalpha and cleaved caspase 3 ELISA in Müller cells cultured in high glucose; format: cell-based
Protocol: as §1, §2, §3

[2] = Body weight, blood glucose, blood pressure and intraocular pressure in streptozotocin diabetic rats on eye drop therapy; format: in vivo, rat; details: rats, 50 mM topical dose of isoproterenol
Protocol: Male Lewis rats purchased from Charles River were used. Diabetic rats received a single injection of 60 mg/kg streptozotocin (Fisher, Pittsburgh, Pa.). […] All rats were weighed weekly and only rats with non-fasting blood glucose levels >250 mg/dl were considered diabetic. The designation of diabetic was made at the beginning of the experiments. Glucose was measured bimonthly. No insulin was administered to the rats at any time. To determine whether topical application of Compound 2 could reach the retina and elicit response, dose and time course studies were performed. For those studies, animals were made diabetic for 2 months using STZ. For 4 days, rats received a variety of doses of either Compound 2 (1 mM to 20 mM) or PBS once or twice each day. After the 4 days of eye drop treatment to both eyes, the diabetic and control animals were euthanized. […] After determining the optimal dose and time course for eye drop treatment for Compound 2, three groups of rats were used for this part of the study (control, diabetic (Diabetic), and diabetic+eye drop (Diab+2). Within 1 week of STZ-injection, 12 rats were put onto eye drop therapy. Rats on the eye drop therapy received a daily application of 4 drops of 1 mM Compound 2 to each eye. To verify that insulin levels were lost in the diabetic animals, insulin ELISA (Rat/Mouse Insulin ELISA kit, Linco, St. Charles, Mo.) was done on blood sampled from all rats at 2 months of age. Rats were sacrificed at 2 or 8 months of age. […] Analyses on the rats were done for acute changes (8 weeks of diabetes, 45 rats) and chronic changes (8 months of diabetes, 45 rats). […] Each month, all rats were tested for visual function: electroretinogram (ERG) and live retinal imaging were performed using Optical Coherence Topography (OCT). […] While the animals were asleep for ERG analyses, blood pressure and pulse were monitored to detect potential negative cardiovascular events.

retina = details: given systemically to rodents; cited from earlier work
[3] = REC in high glucose, 50 nM, vs non-treated
[4] = Müller cells in high glucose, 50 nM, vs non-treated
[5] = Müller cells, 10 μM isoproterenol

SMILES: COc1cc(CCNC[C@H](O)c2cc(O)cc(O)c2)cc(OC)c1OC.Cl [Compound 4, 5-(1-hydroxy-2-[2-(3,4,5-trimethosy-phenyl)-ethylamino]-ethyl)-benzene-1,3-diol hydrochloride]
- beta-2-adrenergic receptor activity (ELISA data) ([1]; REC cells, 50 nM): has more beta-2-adrenergic receptor activity
- TNFalpha levels, in words [1, 3]: reduce TNFalpha levels
- cleaved caspase 3 levels, in words [1, 3]: reduce TNFalpha levels and the cleavage of caspase 3
- time to activate response compared with Compound 2 ([1]; retinal endothelial cells, 50 nM): does take longer to activate response
- beta-2-adrenergic receptor activity (ELISA data) (Rat Müller cells (rMC-1); Muller cells, 50 nM): has more beta-2-adrenergic receptor activity
- effectiveness and speed compared with Compound 2 (Rat Müller cells (rMC-1); Muller cells, 50 nM): more effective and works faster than Compound 2
- TNFalpha levels, in words (Rat Müller cells (rMC-1); [4]): reduce TNFalpha levels
- cleaved caspase 3 levels, in words (Rat Müller cells (rMC-1); [4]): reduce TNFalpha levels and the cleavage of caspase 3

SMILES: COc1cc(CCNC[C@H](O)c2ccc(O)c(O)c2)cc(OC)c1OC [Compound 3, 4-[1-hydroxy-2-(1-ethylamino-3-,4-,5-trimethoxyphenyl)ethyl]benzene-1,2-diol]
- TNFalpha levels, in words [1, 3]: reduced
- cleaved caspase 3 levels, in words [1, 3]: reduced the cleavage of caspase 3
- TNFalpha levels, in words (Rat Müller cells (rMC-1); [4]): significantly reduced TNFalpha within 1 hour
- cleaved caspase 3 levels, in words (Rat Müller cells (rMC-1); [4]): reduced the cleavage of caspase 3

SMILES: CC(C)NCC(O)c1ccc(O)c(O)c1 (centres unmarked) [isoproterenol, 4-[1-hydroxy-2-(isopropylamino)ethyl]benzene-1,2-diol, reference compound]
- cleaved caspase 3 levels, in words ([1]; REC in hyperglycemic conditions, isoproterenol, concentration not given): can decrease cleaved caspase 3 levels
- TNFalpha reduction, in words ([1]; retinal endothelial cells, 10 μM in vitro): did not significantly reduce TNFalpha
- concentration required for the same response (reduction of cleaved caspase 3 and TNFalpha) (Rat Müller cells (rMC-1); Müller cells in high glucose, compared with 50 nM Compound 2): 10 µM
- cleaved caspase 3 levels, in words (Rat Müller cells (rMC-1); Müller cells in hyperglycemic conditions, isoproterenol, concentration not given): can decrease cleaved caspase 3 levels
- time for blockade of apoptosis (Rat Müller cells (rMC-1); [5]): 24 h
- time for inhibition of TNFalpha activity (Rat Müller cells (rMC-1); [5]): ≤ 1 h
- negative cardiovascular events (blood pressure and pulse) [2]: these events have not been observed

SMILES: CC(C)NCC(O)COc1cccc2ccccc12 (centres unmarked) [propranolol]
- electrical activity in the retina (retina): produced significant deficits in the electrical activity in the retina
- growth factors that may promote neovascularization (retina): activated growth factors that may promote neovascularization

SMILES: COc1cc(CCNC[C@H](O)c2ccc(O)c(O)c2)cc(OC)c1OC.Cl (single isomer, unassigned) [R-isomer of Compound 2]
- TNFalpha concentration and cleaved caspase 3: comparison of isomers ([1]; retinal endothelial cells, 50 nM, 1 hour or 24 hours): superior to the S-isomer of Compound 2 and racemic Compound 2
- TNFalpha concentration and cleaved caspase 3: comparison of isomers (Rat Müller cells (rMC-1); Muller cells, 50 nM, 1 hour or 24 hours): superior to the S-isomer of Compound 2 and racemic Compound 2
